These results are taken from paper PMC6019362, “^99mTc标记T7肽及其在裸鼠非小细胞肺癌模型体内的生物分布研究” (Chinese Journal of Lung Cancer, 2014).

Data set [1] is classed as in vitro ADME, human. As to the method: 薄层色谱法检测标记率及放化纯度，以硅胶板为固定相，丙酮作为展开系统，毛细管点样，放射性γ计数器进行检测。稳定性检测:取500 μL的^99mTc-T7溶液分别加入1 mL的生理盐水和1 mL人血清中，37 ℃孵育8 h，用薄层色谱法检测放化纯度。
The next data set concerns 荷人NCI-H157裸鼠肺癌模型. Further details: species or system BALB/c裸鼠. The settings on record: in vivo. As to the method:
将NCI-H157细胞株培养至对数生长期，弃去培养液，PBS清洗2次，0.25%胰酶消化，收集细胞，离心，生理盐水重悬并计数。无菌条件下，每只裸鼠右后肢背部皮下注射6×10^6个/200 μL的NCI-H157细胞悬液。裸鼠置于天津市实验动物中心SPF级动物房饲养，当肿瘤长径达0.6 cm-1.0 cm时进行实验(约30 d)。 将荷瘤裸鼠随机分成5组(0.5 h、1 h、2 h、4 h和8 h)，每组5只，分别尾静脉注射3.7 MBq/100 μL的^99mTc-T7溶液，注射后分别在0.5 h、1 h、2 h、4 h和8 h股动脉放血处死，分别取心、肝、脾、肺、肾、肌肉、骨骼、脑、肿瘤、小肠、胃，称湿重，测量γ计数，计算各脏器的每克组织注射剂量百分比(%ID/g)并分析肿瘤/非肿瘤(T/NT)比值。

“TMPFLFCNVNDVCNFASRNDYSKKK [^99mTc-T7, 羰基锝法标记的肿瘤抑素T7肽, ^99mTc(CO)3^+ labelled 25-mer, integrin αvβ3 targeted imaging probe]”: in data set [1], the “放化纯 (radiochemical purity) after incubation” value is listed as over 90%. Besides, in the data set with 荷人NCI-H157裸鼠肺癌模型, the “肿瘤/肌肉放射性比值 (T/NT)” value is over 5 and the “血脑屏障通过 (blood-brain barrier passage)” value is given as “不能正常通过血脑屏障”. Also, the “8 h血放射性摄取值 (%ID/g) 相对于0.5 h” value with 荷人NCI-H157裸鼠肺癌模型 (mouse, iv, 3.7 MBq, 8 h) is given as 26%.
